The values that follow are results of earlier work, collected in article PMC7884382, “A Phase 1 study of RO6870810, a novel bromodomain and extra-terminal protein inhibitor, in patients with NUT carcinoma, other solid tumours, or diffuse large B-cell lymphoma” (British Journal of Cancer, 2020).

One data set deals with NC. The conditions noted are these: cited from earlier work.
The test system of another data set is serotonin receptors. More on the design: method as in PMID 20871596. The conditions noted are these: cited from earlier work.
The next data set has as its system DLBCL. More on the design: method as in PMID 27063978. The conditions noted are these: cited from earlier work.
For data set [1] the following is noted: cited from earlier work.

For `Cc1nnn(C)c1-c1cnc2c3ccc(C(C)(C)O)cc3n([C@H](c3ccccc3)C3CCOCC3)c2c1` [BMS-986158], in the data set with NC, the “Response in a patient with NC harbouring BRD3-NUT fusion” value was “minor but sustained regression”.

Consider `Cc1sc2c(c1C)C(c1ccc(Cl)cc1)=N[C@@H](CC(=O)OC(C)(C)C)c1nnc(C)n1-2` [JQ1], for which the “Interaction with serotonin receptors” value in the data set with serotonin receptors is “interaction with serotonin receptors”.

What is called half-life is the time in which the quantity being followed falls by half. With `Cc1sc2c(c1C)C(c1ccc(Cl)cc1)=N[C@@H](CC(=O)Nc1ccc(O)cc1)c1nnc(C)n1-2` [birabresib], in the data set on DLBCL (among 22 patients with DLBCL), the CRs was 2 and the PR is 1. The “Responders among patients with MYC-expressing DLBCL” value in the data set with DLBCL is recorded as “one of five”. The half-life in data set [1] was 4 to 5 h.

Turning to `CCNC(=O)C[C@@H]1N=C(c2ccc(Cl)cc2)c2cc(OC)ccc2-n2c(C)nnc21` [molibresib], the “Responses by NUT fusion among patients with NC” value in the data set with NC was “PRs (confirmed and unconfirmed) were mostly observed in tumours with BRD3-NUT fusions”.
